Data: patent US20190062305A1, “PYRIDYL OR PYRAZINYL COMPOUNDS CARRYING A METHYL-BOUND ALPHA-AMINO ACID AMIDE GROUP” (ABBVIE DEUTSCHLAND GMBH & CO. KG, priority 2015, published 2019)
Counter-ions that a name gives are not always drawn.

What was measured:
5-HT2C receptor = biological target: T1, 5-HT2C receptor (Homo sapiens, UniProt P28335); test: Human 5-HT2C functional assay (beta-arrestin2 recruitment, U2OS_HTR2C_β-Arrestin cells); assay type: cell-based; details: for EC50: beta-arrestin2 recruitment, U2OS_HTR2C_β-Arrestin cells, 1.5 h incubation, read-out: EC50 5-HT2C (potency in functional assay); for Emax: relative efficacy vs response to 10 μM 5-HT or maximal 5-HT effect (100%)
T1 construct: host or cells: U2OS
Experimental: The functional activity of compounds of formula I was assayed by incubation with U2OS_HTR2C_β-Arrestin cells (DiscoverX, 93-0289C3) to induce beta-arrestin2 recruitment to the 5-HT2C receptor. The agonist-induced recruitment and proximity of the receptor and beta-arrestin2 leads to complementation and formation of active β-galactosidase. The enzyme complementation results in enzyme activity, which is measured following the termination of the agonist incubation using DiscoveRx's detection reagent, which contains a chemiluminescent substrate which produces a high intensity signal. Cells were plated and a medium-change to a 1% serum containing medium was performed 24h later. The next day, test compounds were added and incubated for 1.5 h before addition of detection reagent.
The response produced was measured and compared with the response produced by 10 [mu]M 5-HT or the maximal effect induced by 5-HT (defined as 100%) to which it was expressed as a percentage response (relative efficacy). Dose response curves were constructed using Graphpad Prism (Graph Software Inc.) or using in house adapted software using a 4 parameter dose response model with variable slope (fit=(Bottom+(Top-Bottom)/(1+10^∧((Log EC50−x)*HillSlope))res=(y-fit)). Results are compiled in the table below.

[1] = Metabolic stability in human liver microsomes, unbound intrinsic clearance (Cl int/fu mic); assay type: in vitro ADME; details: human, liver microsomes, pH 7.4, human liver microsomes 0.25 mg/mL, 0.5 μM compound, NADPH, read-out: Cl int, mic unb. (h) [l/h/kg] (unbound intrinsic clearance, human)
Experimental: Samples of the tested compounds (0.5 μM) were preincubated together with human liver microsomes (0.25 mg of microsomal protein/mL) in 0.05 M potassium phosphate buffer of pH 7.4 in microtiter plates at 37° C. for 5 minutes. The reaction was started by adding NADPH (1.0 mM). After 0, 5, 10, 15, 20 and 30 minutes, an aliquot was removed, the reaction was cooled and stopped by adding twice the amount of quench solution consisting of acetonitrile/methanol 1:1, and containing 0.2 μM carbutamide as internal standard. The samples were frozen until analyzed. The remaining concentration of undegraded test substance was determined by liquid chromatography-tandem mass spectrometry (LC-MS/MS). The half-life (t1/2) was determined from the gradient of the ratio of the signal of (test substance/internal standard)/unit time plot, allowing the calculation of the half-life of the test substance, assuming first order kinetics, from the decrease in the concentration of the compound with time. The microsomal clearance ([…]) was calculated as follows: […]=((ln(2)/t 1⁄2)/Microsomal Protein Concentration (mg/ml))*1000, leading to the unit of uL/min/mg. The scaled clearance (mClin_scaled) was calculated as […]_scaled=m CLint*(Microsomal Yield (mg/kg BW))/1000000*60, leading to the units L/h/kg. The Microsomal Yield is defined by the specifics of the used microsomes. Calculations were modified from references: Di, The Society for Biomolecular Screening, 2003, 453-462; Obach, D M D, 1999 vol 27. N 11, 1350-1359. A suspension of 0.25 mg/ml microsomal protein spiked with 0.5 μM of test compound was pipetted on one side of a HTDialysis device (HTDialysis LLC, 37 Ledgewood Drive, Gales Fery CT 06335) separated by a membrane with a MWcut off 12-14 K. 50 mM K-Phosphate buffer (pH 7.4) was added on the other side of the well. After incubation at 37° C. for 4 h while shaking at 150 rpm, aliquots of both sides were taken, quenched with MeOH/ACN 1:1 and 0.2 μM of internal standard and frozen until analysis by LCMSMS Cl int unbound=Cl int/fu mic

T1 sequence (P28335 33-458): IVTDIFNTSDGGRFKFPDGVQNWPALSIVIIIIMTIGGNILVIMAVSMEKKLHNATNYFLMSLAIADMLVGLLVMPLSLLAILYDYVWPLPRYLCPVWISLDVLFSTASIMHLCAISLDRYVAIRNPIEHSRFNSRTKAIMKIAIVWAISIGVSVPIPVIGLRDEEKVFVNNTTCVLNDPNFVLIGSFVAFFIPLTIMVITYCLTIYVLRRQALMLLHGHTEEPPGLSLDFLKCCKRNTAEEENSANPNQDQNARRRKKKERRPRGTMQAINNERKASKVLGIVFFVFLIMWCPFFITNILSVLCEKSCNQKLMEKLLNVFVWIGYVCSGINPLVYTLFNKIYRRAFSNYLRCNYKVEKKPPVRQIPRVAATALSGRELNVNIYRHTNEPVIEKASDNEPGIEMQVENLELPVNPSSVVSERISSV
T1 sequence (P32121 whole entry partner): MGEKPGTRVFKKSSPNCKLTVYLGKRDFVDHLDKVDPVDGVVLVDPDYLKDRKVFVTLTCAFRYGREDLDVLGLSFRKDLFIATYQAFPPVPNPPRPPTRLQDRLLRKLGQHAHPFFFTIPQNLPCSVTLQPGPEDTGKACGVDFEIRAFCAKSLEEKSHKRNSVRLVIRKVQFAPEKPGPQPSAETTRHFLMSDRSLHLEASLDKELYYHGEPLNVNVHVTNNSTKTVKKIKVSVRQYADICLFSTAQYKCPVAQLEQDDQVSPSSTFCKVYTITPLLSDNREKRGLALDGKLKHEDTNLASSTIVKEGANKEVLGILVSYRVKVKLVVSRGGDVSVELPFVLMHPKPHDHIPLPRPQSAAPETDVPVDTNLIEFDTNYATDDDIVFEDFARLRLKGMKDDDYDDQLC

SMILES	EC50 (5-HT2C receptor) [nM]	Emax (5-HT2C receptor) [%]	CLint scaled at 0.5 μM [1] [L/h/kg]
COc1nc(NC2CCC(F)(F)CC2)c(F)cc1CN(C)C(=O)[C@@H]1CCCN1 [Example 166, (2S)—N-[[6-[(4,4-Difluorocyclohexyl)amino]-5-fluoro-2-methoxy-3-pyridyl]methyl]-N-methyl-pyrrolidine-2-carboxamide; 2,2,2-trifluoroacetic Acid]	20 to 200	50 to 70	< 5
COc1nc(OC2CCC(C(F)(F)F)CC2)c(F)cc1CNC(=O)[C@@H]1CCN1 (stereo partly drawn) [Example 36, (2S)—N-[[5-Fluoro-2-methoxy-6-[4-(trifluoromethyl)cyclohexoxy]-3-pyridyl]-methyl]azetidine-2-carboxamide; Succinic Acid]	< 20	50 to 70	5 to 50
COc1nc(OC2CCC(F)(F)CC2)c(F)cc1CNC(=O)[C@@H]1CCCN1 [Example 1, (2S)—N-[[6-(4,4-Difluorocyclohexoxy)-5-fluoro-2-methoxy-3-pyridyl]methyl]-pyrrolidine-2-carboxamide; Fumaric Acid]	< 20	> 70	< 5
COc1nc(OC2CCC3(CC2)CC3(F)F)c(F)cc1CNC(=O)[C@@H]1CCCN1 (stereo partly drawn) [Example 118, (2S)—N-[[6-(2,2-Difluorospiro[2.5]octan-6-yl)oxy-5-fluoro-2-methoxy-3-pyridyl]methyl]pyrrolidine-2-carboxamide; 2,2,2-trifluoroacetic Acid]	< 20	> 70	5 to 50
COc1nc(OC2CCC(F)(F)CC2)c(F)cc1CNC(=O)[C@H]1CCCN1C [Example 52, (2R)—N-[[6-(4,4-Difluorocyclohexoxy)-5-fluoro-2-methoxy-3-pyridyl]methyl]-1-methyl-pyrrolidine-2-carboxamide Hydrochloride]	20 to 200	> 70	< 5
COc1nc(N2CCCC(C(F)(F)F)C2)c(F)cc1CNC(=O)[C@@H]1CCCN1 (stereo partly drawn) [Example 153, (2S)—N-[[5-Fluoro-2-methoxy-6-[3-(trifluoromethyl)-1-piperidyl]-3-pyridyl]methyl]pyrrolidine-2-carboxamide; 2,2,2-trifluoroacetic Acid]	20 to 200	> 70	5 to 50
C=CCN(Cc1ccccc1)c1nc(OC)c(CNC(=O)[C@@H]2CCCN2)cc1F [Example 150, (2S)—N-[[6-[N-Allyl-N-benzyl-amino]-5-fluoro-2-methoxy-3-pyridyl]methyl]-pyrrolidine-2-carboxamide Hydrochloride]	20 to 200	> 70	5 to 50
COc1nc(O[C@H]2CC[C@@H](C(F)(F)F)CC2)c(F)cc1CN(C)C(=O)[C@@H]1CCCN1 [Example 119, (2S)—N-[[5-Fluoro-2-methoxy-6-[cis-4-(trifluoromethyl)cyclohexoxy]-3-pyridyl]-methyl]-N-methyl-pyrrolidine-2-carboxamide hydrochloride]	20 to 200	> 70	5 to 50
COc1nc(O[C@H]2CC[C@@H](C(F)(F)F)CC2)c(F)cc1CNC(=O)[C@@H]1CCCN1C [Example 19, (2S)—N-[[5-Fluoro-2-methoxy-6-[cis-4-(trifluoromethyl)cyclohexoxy]-3-pyridyl]methyl]-1-methyl-pyrrolidine-2-carboxamide; Fumaric Acid]	< 20	> 70	5 to 50
COc1nc(N2CCCCCC2)c(F)cc1CNC(=O)[C@@H]1CCCN1 [Example 155, (2S)—N-[[6-(Azepan-1-yl)-5-fluoro-2-methoxy-3-pyridyl]methyl]pyrrolidine-2-carboxamide; 2,2,2-trifluoroacetic Acid]	20 to 200	> 70	5 to 50
COc1nc(OCC2CC(F)(F)C2)c(F)cc1CN(C)C(=O)[C@@H]1CCCN1C [Example 106, (2S)—N-[[6-[(3,3-Difluorocyclobutyl)methoxy]-5-fluoro-2-methoxy-3-pyridyl]-methyl]-N,1-dimethyl-pyrrolidine-2-carboxamide Hydrochloride]	20 to 200	30 to 50	< 5
